Measured values as given in patent US12419888B2, “Methods of treating elevated plasma cholesterol” (INSTITUT DE CARDIOLOGIE DE MONTREAL, priority 2020, dated 2025).
Each block holds one compound with its values, some of them ahead of it.

Assays:
[1] = biological target: Biotinylated PCSK9 (Homo sapiens (Human), UniProt Q8NBP7); assay: Binding affinity of SHIM compounds to PCSK9 by surface plasmon resonance spectroscopy (Biacore T200); details: SPR, range tested 0.5-10 uM, 1:1 Langmuir model, NB = no binding detected in the tested range; for Kd: read-out: KD - equilibrium dissociation constant; for kon: read-out: ka - association rate constant; for koff: read-out: kd - dissociation rate constant
Biotinylated PCSK9, sequence (Q8NBP7 153-692): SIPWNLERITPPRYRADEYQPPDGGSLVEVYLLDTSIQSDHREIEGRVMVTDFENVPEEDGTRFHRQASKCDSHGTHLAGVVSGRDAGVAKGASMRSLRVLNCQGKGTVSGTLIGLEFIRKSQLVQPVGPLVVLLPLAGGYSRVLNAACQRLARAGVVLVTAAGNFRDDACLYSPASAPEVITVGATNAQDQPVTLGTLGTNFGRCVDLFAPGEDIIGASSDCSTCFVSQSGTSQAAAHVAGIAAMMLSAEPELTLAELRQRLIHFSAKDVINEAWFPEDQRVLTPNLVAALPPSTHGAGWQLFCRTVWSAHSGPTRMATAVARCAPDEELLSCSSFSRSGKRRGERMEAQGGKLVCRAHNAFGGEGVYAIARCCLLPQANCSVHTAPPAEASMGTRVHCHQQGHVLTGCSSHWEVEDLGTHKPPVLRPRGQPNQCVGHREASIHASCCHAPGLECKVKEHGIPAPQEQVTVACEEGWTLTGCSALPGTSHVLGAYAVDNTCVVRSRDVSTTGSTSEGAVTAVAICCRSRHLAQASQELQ
Description: Studies of SHIM compounds—PCSK9 interactions. […] Biotinylated PCSK9 (ACRO Biosystems) at 1 μg/mL has been captured on a chip on which streptavidin has been immobilized with amine-directed chemistry according to the manufacturer's instructions (6000 RU) to a density of 6000 RU in PBS-P ([…], 0.005% Tween 20, pH7.4) buffer with 1% DMSO. SHIMs at 10, 3.3, 1.1, 0.33 and 0.11 uM were injected at 30 uL/min. […] Double reference method of analysis was used with the reference channel containing a reference biotinylated protein captured at 6000 RU.

[2] = system: LDLR protein levels in HepG2 cells; assay: Western blot analysis of relative LDLR protein levels in HepG2 cells after treatment; format: cell-based, human; details: HepG2 cells incubated overnight with compound, 0.2 μM to 20 μM
Description: Cell culture, treatments and cell viability assay. For phenotypic screening of PCSK9 modulators and/or LDLR small molecule inducers, human HepG2 cells were incubated overnight in conditioned media containing chemical compounds resuspended in DMSO at concentration ranging from 0.2 μM to 20 μM. […] Following incubation, media have been replaced and cells incubated for 4 h with 100 μL of phenol red-free DMEM containing 0.5 mg/mL of MTT (3-[4,5-dimethylthiazol-2-yl]-2,5-diphenyltetrazolium bromide; thiazolyl blue; catalog no. M5655, Sigma-Aldrich), following manufacturer's instructions.
Western Blot Analysis, Immunocytochemistry and LDLR Activity Assay. Following incubation, cells were washed three times in phosphate-buffered saline (PBS) and lysed in radioimmune precipitation assay buffer (50 mM Tris/HCl, pH 8.0, 1% (v/v) Nonidet P-40, 0.5% sodium deoxycholate, 150 mM NaCl, and 0.1% (v/v) SDS) supplemented with a complete protease inhibitor mixture (catalog no. 11 697 498 001, Roche Applied Science). Proteins were separated by SDS polyacrylamide gel electrophoresis, blotted on nitrocellulose membranes (Bio-Rad), blocked incubated with indicated antibodies as described (Poirier S, et al., Cell Rep, 2015). For immunocytochemistry analysis, cells were permeabilized or not with 0.1% Triton X-100/PBS for 10 min, and incubated with 150 mM glycine, blocked and incubated with indicated primary and secondary antibodies. Immunofluorescence analyses were performed with an Olympus FluoView FV10i confocal microscope (Poirier et al., Cell Rep. 2015; 13(10):2064-2071). For LDLR activity assay, HepG2 cells were incubated overnight without or with a given compound in the presence of 5 μg/ml fluorescent labelled DiI-LDL (Alfa Aesar, Cat. #J65330) and co-stained for LDLR if applicable, as described (Poirier et al., J Biol Chem. 2009; 284(42):28856-28864). Immunofluorescence analyses were performed with an Olympus FluoView FV10i confocal microscope.

Kd [1]: 3.88 µM
kon [1]: 22800 M⁻¹ s⁻¹
koff [1]: 0.09 s⁻¹
SMILES: C[C@@]1(c2ccc3ccccc3c2)NC(=O)N(CC(=O)N2CCC(C(=O)N3CCCCCC3)CC2)C1=O (stereo in doubt) [Compound 16, 3-{2-[4-(azepane-1-carbonyl)piperidin-1-yl]-2-oxoethyl}-5-methyl-5-(naphthalen-2-yl)imidazolidine-2,4-dione]
LDLR Fold (relative LDLR protein levels) [2]: 2.1 ± 1.2 Fold

SMILES: Cc1cccc(C(=O)N2CCC[C@H](Cn3cc(C(C)(C)N)nn3)C2)c1C (stereo in doubt) [Compound 50, 2-(1-{[1-(2,3-dimethylbenzoyl)piperidin-3-yl]methyl}-1H-1,2,3-triazol-4-yl)propan-2-amine]
LDLR Fold (relative LDLR protein levels) [2]: 1.1 Fold

SMILES: COc1ccccc1[C@H]1N=C(N2CCC(Cc3ccccc3)CC2)N=C2N=C(C)C=C(O)N21 (stereo in doubt) [Compound 52, 2-(4-benzylpiperidin-1-yl)-4-(2-methoxyphenyl)-8-methyl-4H-pyrimido[1,2-a][1,3,5]triazin-6-ol]
LDLR Fold (relative LDLR protein levels) [2]: 0.7 Fold

SMILES: C[C@H](NC(=O)[C@@H]1Cc2c([nH]c3ccccc23)[C@H]2c3ccccc3C(=O)N21)C(=O)NC1CCCC1 [Compound 1, (2S)—N-cyclopentyl-2-{[(11 S)-9-oxo-10,20-diazapentacyclo[11.7.0.0^2,^10.0^3,^8.0^14,^19]icosa-1(13),3,5,7,14,16,18-heptaen-11-yl]formamido}propanamide]
LDLR Fold (relative LDLR protein levels) [2]: 1.2 ± 0.2 Fold

SMILES: Cc1nn(CC(=O)N2CCc3c([nH]c4ccccc34)[C@H]2c2ccccn2)c(=O)c2ccccc12 [Compound 2, 4-methyl-2-{2-oxo-2-[1-(2-pyridinyl)-1,3,4,9-tetrahydro-2H-beta-carbolin-2-yl]ethyl}-1(2H)-phthalazinone]
LDLR Fold (relative LDLR protein levels) [2]: 1.0 ± 0.5 Fold

SMILES: O=C(Cn1[nH]c(=O)c2ccccc2c1=O)Nc1ccc(N2C(=O)c3cccc4cccc(c34)C2=O)cc1 [Compound 4, 2-(1,4-dioxo-1,2,3,4-tetrahydrophthalazin-2-yl)-N-(4-{2,4-dioxo-3-azatricyclo[7.3.1.0^{5,13}]trideca-1(13),5,7,9,11-pentaen-3-yl}phenyl)acetamide]
LDLR Fold (relative LDLR protein levels) [2]: 1.6 ± 0.2 Fold

SMILES: CC(=O)N1CCC2(CC1)CC(=O)c1ccc(OCC(=O)N3CCc4ccccc43)cc1O2 [Compound 6, 1′-acetyl-7-[2-(2,3-dihydro-1H-indol-1-yl)-2-oxoethoxy]-3,4-dihydrospiro[1-benzopyran-2,4′-piperidin]-4-one]
LDLR Fold (relative LDLR protein levels) [2]: 0.8 ± 0.3 Fold

SMILES: O=C(c1cn(CCN2CCCCC2)nn1)N1CCC2(C=Cc3ccccc32)CC1 [Compound 9, 1′-{1-[2-(piperidin-1-yl)ethyl]-1H-1,2,3-triazole-4-carbonyl}spiro[indene-1,4′-piperidine]]
LDLR Fold (relative LDLR protein levels) [2]: 0.4 ± 0.1 Fold

SMILES: CC1(c2ccc3ccccc3c2)NC(=O)N(CC(=O)N2CCCCC2c2nc3ccccc3s2)C1=O (stereo not shown) [Compound 11, 3-{2-[2-(1,3-benzothiazol-2-yl)piperidin-1-yl]-2-oxoethyl}-5-methyl-5-(naphthalen-2-yl)imidazolidine-2,4-dione]
LDLR Fold (relative LDLR protein levels) [2]: 1.5 ± 0.4 Fold

SMILES: CC1(c2ccc3ccccc3c2)NC(=O)N(CC(=O)N2CCCC(c3nc4ccccc4s3)C2)C1=O (stereo not shown) [Compound 12, 3-{2-[3-(1,3-benzothiazol-2-yl)piperidin-1-yl]-2-oxoethyl}-5-methyl-5-(naphthalen-2-yl)imidazolidine-2,4-dione]
LDLR Fold (relative LDLR protein levels) [2]: 1.8 ± 0.6 Fold

SMILES: CC1(c2ccc3ccccc3c2)NC(=O)N(CC(=O)N2CCC(c3nc4ccccc4s3)CC2)C1=O (stereo not shown) [Compound 13, 3-{2-[4-(1,3-benzothiazol-2-yl)piperidin-1-yl]-2-oxoethyl}-5-methyl-5-(naphthalen-2-yl)imidazolidine-2,4-dione]
LDLR Fold (relative LDLR protein levels) [2]: 1.5 ± 0.7 Fold

Kd [1]: 13.8 µM
kon [1]: 14500 M⁻¹ s⁻¹
koff [1]: 0.19 s⁻¹
SMILES: CC1(c2ccc3ccccc3c2)NC(=O)N(CC(=O)N2CCC(C(=O)Nc3ccccc3)CC2)C1=O (stereo not shown) [Compound 14, 1-[2-[4-methyl-4-(2-naphthyl)-2,5-dioxo-imidazolidin-1-yl]acetyl]-N-phenyl-piperidine-4-carboxamide]
LDLR Fold (relative LDLR protein levels) [2]: 2.0 ± 0.7 Fold

SMILES: Cc1ccc(-c2cc(C(=O)N3CCc4c([nH]c5ccccc45)C3c3ccccn3)[nH]n2)s1 (stereo not drawn) [Compound 25, 2-{[3-(5-methyl-2-thienyl)-1H-pyrazol-5-yl]carbonyl}-1-(2-pyridinyl)-2,3,4,9-tetrahydro-1H-beta-carboline]
LDLR Fold (relative LDLR protein levels) [2]: 1.1 Fold

SMILES: Cc1cccc(C2c3[nH]c4ccccc4c3CCN2C(=O)CCCN2CCCCC2=O)n1 (stereo not shown) [Compound 28, 1-{4-[1-(6-methylpyridin-2-yl)-1H,2H,3H,4H,9H-pyrido[3,4-b]indol-2-yl]-4-oxobutyl}piperidin-2-one]
LDLR Fold (relative LDLR protein levels) [2]: 1.0 Fold

SMILES: COc1ccccc1C1N=C(Nc2cccc(C)c2C)N=C2N=C(C)C=C(O)N21 (stereo not shown) [Compound 32, 2-[(2,3-dimethylphenyl)amino]-4-(2-methoxyphenyl)-8-methyl-4H-pyrimido[1,2-a][1,3,5]triazin-6-ol]
LDLR Fold (relative LDLR protein levels) [2]: 0.8 Fold

SMILES: COc1ccccc1[C@H]1N=C(N2CCN(c3cccc(Cl)c3)CC2)N=C2N=C(C)C=C(O)N21 [Compound 33, 2-[4-(3-chlorophenyl)piperazin-1-yl]-4-(2-methoxyphenyl)-8-methyl-1,4-dihydro-6H-pyrimido[1,2-a][1,3,5]triazin-6-ol]
LDLR Fold (relative LDLR protein levels) [2]: 1.0 Fold

SMILES: O=C(CN1CCN(c2nnc(-c3ccccc3)c3ccccc23)CC1)N1CCCC1 [Compound 35, 2-[4-(4-phenylphthalazin-1-yl)piperazin-1-yl]-1-(pyrrolidin-1-yl)ethan-1-one]
LDLR Fold (relative LDLR protein levels) [2]: 0.9 Fold

SMILES: Cc1ccc(-c2nnc(N3CCN(C(=O)CN4C(=O)c5ccccc5C4=O)CC3)c3ccccc23)cc1 [Compound 36, 2-(2-{4-[4-(4-methylphenyl)phthalazin-1-yl]piperazin-1-yl}-2-oxoethyl)-2,3-dihydro-1H-isoindole-1,3-dione]
LDLR Fold (relative LDLR protein levels) [2]: 0.8 Fold

SMILES: Cc1ccc(-c2nnc(N3CCN(C(=O)Cn4c(=O)n(C)c5ccccc54)CC3)c3ccccc23)cc1 [Compound 37, 1-methyl-3-(2-{4-[4-(4-methylphenyl)phthalazin-1-yl]piperazin-1-yl}-2-oxoethyl)-2,3-dihydro-1H-1,3-benzodiazol-2-one]
LDLR Fold (relative LDLR protein levels) [2]: 1.0 Fold

SMILES: O=C(CN1C(=O)c2ccccc2C1=O)N1CCN(c2nnc(-c3ccccc3)c3ccccc23)CC1 [Compound 38, 2-{2-oxo-2-[4-(4-phenylphthalazin-1-yl)piperazin-1-yl]ethyl}-2,3-dihydro-1H-isoindole-1,3-dione]
LDLR Fold (relative LDLR protein levels) [2]: 0.9 Fold

SMILES: Cc1ccc(-c2nnc(N3CCN(C(=O)c4ccco4)CC3)c3ccccc23)cc1 [Compound 39, 1-[4-(furan-2-carbonyl)piperazin-1-yl]-4-(4-methylphenyl)phthalazine]
LDLR Fold (relative LDLR protein levels) [2]: 0.9 Fold

SMILES: CC1CCN(CC(=O)N2CCN(c3nnc(-c4ccccc4)c4ccccc34)CC2)CC1 [Compound 40, 2-(4-methylpiperidin-1-yl)-1-[4-(4-phenylphthalazin-1-yl)piperazin-1-yl]ethan-1-one]
LDLR Fold (relative LDLR protein levels) [2]: 0.9 Fold

SMILES: c1ccc2c(N3CCN(Cc4ccc5c(c4)OCO5)CC3)nnc(Cc3ccncc3)c2c1 [Compound 41, 1-{4-[(2H-1,3-benzodioxol-5-yl)methyl]piperazin-1-yl}-4-[(pyridin-4-yl)methyl]phthalazine]
LDLR Fold (relative LDLR protein levels) [2]: 0.7 Fold

SMILES: O=C(CN1CCOCC1)N1CCN(c2nnc(-c3ccccc3)c3ccccc23)CC1 [Compound 43, 2-(morpholin-4-yl)-1-[4-(4-phenylphthalazin-1-yl)piperazin-1-yl]ethan-1-one]
LDLR Fold (relative LDLR protein levels) [2]: 0.9 Fold

SMILES: Cc1cc(C(=O)N2CCCC(C(=O)Nc3ccccc3)C2)c2ccccc2n1 (stereo not shown) [Compound 51, 1-(2-methylquinoline-4-carbonyl)-N-phenylpiperidine-3-carboxamide]
LDLR Fold (relative LDLR protein levels) [2]: 1.2 Fold
